Data on seven molecules can be found in patent US7091240B2, “Tubulin binding ligands and corresponding prodrug constructs” (Oxigene, Inc., priority 2000, dated 2006).

For one series, the system named is BXPC-3. Kind of series: In vitro cytotoxicity against human cancer cell lines (SRB). It counts as cell-based. Particulars: pancreas; 48 hours incubation. On the procedure:
(§1) Briefly, the cell suspensions, diluted according to the particular cell type and the expected target cell density (5,000–40,000 cells per well based on cell growth characteristics), were added by pipet (100 μl) to 96-well microtiter plates. Inoculates were allowed a preincubation time of 24–28 hours at 37° C. for stabilization. Incubation with the inhibitor compounds lasted for 48 hours in 5% CO2 atmosphere and 100% humidity. Determination of cell growth was performed by in situ fixation of cells, followed by staining with a protein-binding dye sulforhodamine B (SRB), which binds to the basic amino acids of cellular macromolecules. The solubilized stain was measured spectrophotometrically.
(§2) Compounds were evaluated in terms of growth inhibitory activity against several human cancer cell lines including: central nervous system (“CNS”, SF-295 or SF-268), pancreas (BXPC-3), non-small cell lung cancer (“lung-NSC”, NCI-H460), breast (MCF-7), colon (KM20L2), ovarian (OVCAR-3), pharyngeal (FADU), or prostate (DU-145).

The next series has as its system KM20L2. The series is described as above. As to conditions: colon; 48 hours incubation. It counts as cell-based. How it is done:
as §1, §2

In a further series the test system is SF-295. The series is described as above. It counts as cell-based. As to conditions: CNS; 48 hours incubation; unstarred values. How it is done: as §1, §2
The subject of another series is MCF-7. Described as above. The series is classed as cell-based. As to conditions: breast; 48 hours incubation. How it is done:
as §1, §2

For another series, the system named is DU-145. The description is as above. The series is classed as cell-based. Particulars: prostate; 48 hours incubation. On the procedure: as §1, §2
A further series has as its system NCI-H460. The description is as above. It counts as cell-based. As to conditions: lung-NSC; 48 hours incubation. On the procedure:
as §1, §2

The test system of series [1] is murine hemangioendothelioma MHEC-5T cell line. Kind of series: In vitro antiproliferative activity, MTT assay. It counts as cell-based. How it is done: The following compounds were tested for in vitro antiproliferative activity against the murine hemangioendothelioma MHEC-5T cell line using a standard MTT assay (see Mosman, J. Immunol. Methods, 1983). In actively proliferating cells, an increase in MTT conversion is spectrophotometrically quantified by the reduction of MTT (3-[4,5-dimethylthiazol-2-yl]-2,5-diphenyl tetrazolium bromide) to the insoluble formazan dye by enzymes associated with metabolic activity. A compound with growth inhibitory activity will cause a reduction in dye formation relative to cells exposed to a vehicle control.

Series [2] has as its system human breast cancer MDA-MB-231 model. Description: Tumor growth control in vivo. Particulars: 400 mg/kg i.p. in saline, SCID mice, Days 1, 2 and 6 post-treatment. How it is done: The antitumor activity of BbT prodrug 8 was assessed in female tumor-bearing mice by measuring its effects on tumor volume in comparison with CA4P. A human breast cancer MDA-MB-231 model was established by subcutaneous injection of cultured M DA-MB-231 cells (1×10^6) in Fox Chase CB-17 SCID mice.
Mice were administered CA4P or BbT prodrug in saline carrier at 400 mg/kg by intraperitoneal (i.p.) injection after 1 week of MDA-MB inoculation. Saline carrier only was used as the control treatment. On Days 1, 2 and 6 post-treatment, tumors were measured by width and length by a caliber. Tumor volume was calculated according to the following formula: Length×Width^2×0.4. The relative anti-tumor effects are illustrated in FIG. 9.

A further series has as its system purified tubulin. Kind of series: Inhibition of tubulin polymerization assay. The series is classed as biochemical, bovine. Particulars: for IC50: read-out: IC50 In Vitro Inhibition of Tubulin Polymerization, 1.5 mg/ml tubulin, preincubated 15 minutes at 37° C., GTP-induced. How it is done: IC50 values for tubulin polymerization were determined according to a previously described procedure (Bai et al, Cancer Research, 1996). Purified tubulin is obtained from bovine brain cells as described in Hamel and Lin (Hamel and Lin, Biochemistry, 1984). Various amounts of inhibitor were preincubated for 15 minutes at 37° C. with purified tubulin. After the incubation period, the reaction was cooled and GTP was added to induce tubulin polymerization. Polymerization was then monitored in a Gilford spectrophotometer at 350 nm. The final reaction mixtures (0.25 ml) contained 1.5 mg/ml tubulin, 0.6 mg/ml microtubule-associated proteins (MAPs), 0.5 mM GTP, 0.5 mM MgCl2, 4% DMSO and 0.1M 4-morpholineethanesulfonate buffer (MES, pH 6.4).

The test system of series [3] is MHEC-5T hemangioendothelioma tumor model. Description: Inhibition of tumor blood flow, Fluorescent Bead Assay. As to conditions: single i.p. injection, 24 hours post-treatment, SCID mice. It counts as in vivo. On the procedure:
The antivascular effects of the diphosphate BbF, Oxi-com 223, was assessed in tumor-bearing mice using a Fluorescent Bead Assay. A MHEC-5T hemangioendothelioma tumor model was established by subcutaneous injection of 0.5×10^6 cultured transformed cell murine myocardial vascular endothelial cell line (“MHEC5-T”) cells into the right flank of Fox Chase CB-17 Severe Combined Immunodeficient (“SCID”) mice. […] At 24 hours post-treatment, mice were injected intravenously with 0.25 ml of diluted FluoSphere beads (1:6 in physiological saline) in the tail vein, sacrificed after 3 minutes, and tumor was excised for cryosectioning. Tumor cryosections at a thickness of 8 μm were directly examined using quantitative fluorescent microscopy. Blood vessels were indicated by blue fluorescence from injected beads. For quanitification, image analysis of 3 sections from three tumors treated in each group were examined and vascular shutdown was expressed as vessel area (mm^2) per tumor tissue area (mm^2) as a percentage of the control (“% VAPM”). Compounds of the present invention were tested for antivascular effects at two dosages (100 mg/kg and 10 mg/kg) using the same Fluorescent Bead Assay as in the previous experiment.

The test system of a further series is SF-268. Description: In vitro cytotoxicity against human cancer cell lines (SRB). The series is classed as cell-based. As to conditions: CNS; 48 hours incubation; values marked *. How it is done:
as §1, §2

A further series concerns OVCAR-3. Described as above. Particulars: ovarian; 48 hours incubation. It counts as cell-based. On the procedure:
as §1, with “The activity of several compounds were tested against a variety of cell lines derived from human tumors, using an assay system similar to a procedure previously described (Monks et al, J. Natl. Cancer Inst., 1991). Briefly,” for “Briefly,”
as §2

The next series deals with FADU. Described as above. As to conditions: pharyngeal; 48 hours incubation. The series is classed as cell-based. On the procedure:
as §1, with “The activity of several compounds were tested against a variety of cell lines derived from human tumors, using an assay system similar to a procedure previously described (Monks et al, J. Natl. Cancer Inst., 1991). Briefly,” for “Briefly,”
as §2

A further series can be described thus: In vitro cytotoxicity. The series is classed as cell-based.
[4] abbreviates: 5 days, read-out: IC50 at 5 days.
The mark [5] stands for this setting: read-out: IC50 at 1 hour, 1 hour.

Where two headings read alike, the source gives them in different places. Some results are limits rather than exact numbers.

On to `COc1ccc2c(C(=O)c3cc(OC)c(OC)c(OC)c3)c(-c3ccc(OC)c(OP(=O)([O-])[O-])c3)sc2c1.[Na+].[Na+]` [Oxi-com 140, 8, 3-(3′,4′,5′-trimethoxybenzoyl)-2-(3′-sodiumphosphate-4′-methoxyphenyl)-6-methoxybenzo[b]thiophene], for which, in the series with BXPC-3, the “GI50 for Cell Line BXPC-3” value worked out at 0.35 µg/mL. Further, the “GI50 for Cell Line KM20L2” value in the series on KM20L2 came to 0.22 µg/mL. In addition, in the series on SF-295, the “GI50 for Cell Line SF-295” value is 0.11 µg/mL. Also, in the series with MCF-7, the “GI50 for Cell Line MCF-7” value was 0.028 µg/mL. Also, the “GI50 for Cell Line DU-145” value in the series with DU-145 turned out to be 0.045 µg/mL. The “GI50 for Cell Line NCI-H460” value in the series on NCI-H460 stood at 0.035 µg/mL. Moreover, the values for the IC50 in series [1] (setting [4]) and in [1] (setting [5]) were 129 nM and > 11200 nM, respectively. Moreover, the “effect on tumor growth (tumor volume) relative to control treatment” value in series [2] is “significantly inhibited tumor growth”.
Regarding `COc1ccc2c(-c3ccc(OC)c(O)c3O)coc2c1` [Compound 28, 3-(2′,3′-hydroxy-4′-methoxyphenyl)-6-methoxybenzo[b]furan], the IC50 in the series on purified tubulin was 1000 to 4000 nM.
For the molecule `COc1ccc(/C=C\c2cc(OC)c(OC)c(OC)c2)cc1OP(=O)([O-])[O-].[Na+].[Na+]` [CA4P, Combretastatin A-4 Disodium Phosphate Prodrug, reference compound], the IC50 in [1] (setting [4]) worked out at 2 nM; in series [1] (setting [5]), 800 nM. The “effect on tumor growth (tumor volume) relative to control treatment” value in [2] is “significantly inhibited tumor growth”.
For the molecule `COc1ccc2c(C(=O)c3cc(OC)c(OC)c(OC)c3)c(-c3ccc(OC)c(OP(=O)([O-])[O-])c3)oc2c1.[Na+].[Na+]` [Oxi-com 223, 33, 3-(3′,4′,5′-trimethoxybenzoyl)-2-(3′-disodiumphosphate-4′-methoxyphenyl)-6-methoxybenzo[b]furan], the half-inhibitory concentration (IC50) was > 1400 nM in [1] (setting [4]) and > 50000 nM in [1] (setting [5]). Further, the “% VAPM at 10 mg/kg dose” value in [3] (10 mg/kg) worked out at 10%. For the same molecule, the “% VAPM at 100 mg/kg dose” value in series [3] (100 mg/kg) stood at 51%.
As for `COc1ccc2c(C(=O)c3cc(OC)c(OC)c(OC)c3)c(-c3ccc(OC)c(OP(=O)([O-])[O-])c3)oc2c1.[Na+].[Na+]` [Oxi-com 195, 19, 2-(3″-disodiumphosphate-4″-methoxyphenyl)-6-methoxy-3-(3′,4′,5′-trimethoxybenzoyl)benzo[b]furan], the “GI50 for Cell Line BXPC-3” value in the series on BXPC-3 was determined as 2.3 µg/mL. In addition, the “GI50 for Cell Line KM20L2” value with KM20L2 is 3.8 µg/mL. Moreover, the “GI50 for Cell Line MCF-7” value in the series on MCF-7 worked out at 0.042 µg/mL. The “GI50 for Cell Line SF-268” value in the series with SF-268 is on record as “*0.062 μg/ml”. Also, in the series with DU-145, the “GI50 for Cell Line DU-145” value is 0.05 µg/mL. For the same molecule, the “GI50 for Cell Line NCI-H460” value with NCI-H460 worked out at 0.05 µg/mL. The IC50 in series [1] (setting [4]) was 100 nM; in [1] (setting [5]) it was > 25000 nM; in the series on purified tubulin, 4000 to 10000 nM.
Turning to `C#C/C=C\C#CC(=O)c1cc(OC)c(OC)c(OC)c1` [Enediyne, 47, 1-(3,4,5-trimethoxybenzoyl)-(Z)-3-ene-1,5-hexadiyne], the “GI50 for Cell Line BXPC-3” value in the series with BXPC-3 was 1.4 µg/mL. In addition, the “GI50 for Cell Line SF-295” value in the series on SF-295 is 1.7 µg/mL. For the same molecule, the “GI50 for Cell Line DU-145” value with DU-145 worked out at 0.54 µg/mL. Further, the “GI50 for Cell Line NCI-H460” value in the series on NCI-H460 is 1.7 µg/mL. In the series on OVCAR-3, the “GI50 for Cell Line OVCAR-3” value worked out at 0.53 µg/mL. For the same molecule, the “GI50 for Cell Line FADU” value in the series with FADU came out at 0.95 µg/mL. Moreover, the “cytotoxicity (in words)” value in the series “In vitro cytotoxicity” was “strong cytotoxicity”. Moreover, the “inhibition of tubulin polymerization (in words)” value with purified tubulin was “excellent inhibition of tubulin polymerization”.
Consider `COc1ccc2c(-c3ccc(OC)c(O)c3O)c(C(=O)c3cc(OC)c(OC)c(OC)c3)oc2c1` [Compound 31, 3-(2″,3″-dihydroxy-4″-methoxyphenyl)-6-methoxy-2-(3′,4′,5′-trimethoxybenzoyl)benzo[b]furan], for which, in the series with purified tubulin, the IC50 lay within 1000 to 4000 nM.

As usually defined, the IC50 is the midpoint of a concentration-inhibition curve.
